According to patent US9849140B2, “Topical compositions comprising bimatoprost and methods for stimulating hair growth therewith” (Allergan, Inc., priority 2009, dated 2017):

Legend:
[1] = system: men with mild to moderate androgenic alopecia (AGA); assay: Phase 2 multicenter trial, scalp hair growth efficacy (DIA: TAHC, TAHW, TAHD; SSA, IGA, GPR); assay type: in vivo, human
Method: (§1) In a phase 2 multicenter trial, men 18-49 years of age with mild to moderate androgenic alopecia (AGA) were randomized in a 1:1:1:1:1 ratio to receive in a double-blind manner bimatoprost (BIM) 0.3%, 0.1%, 0.03%, or vehicle applied once daily, or open label over-the-counter minoxidil 5% solution (MIN) applied twice daily to the vertex area of the scalp for 6 months. Subjects were evaluated every 2 months during treatment and at 2 months after completing treatment. The BIM formulations used in this study were as described in Table 3 above.
The following assessments were made with digital image analysis (DIA; macrophotographs of a prespecified 1-cm^2 circular area at the anterior leading edge of the vertex thinning area of the scalp identified by microdot tattoo) using customized validated software: Target Area Hair Count (TAHC) measured in terminal hairs/cm^2; Target Area Hair Width (TAHW) measured in mm/cm^2; and, Target Area Hair Darkness (TAHD) measured in intensity units;
Co-primary efficacy endpoints measured included the change from baseline in TAHC and the SSA of change in scalp hair growth. Secondary efficacy endpoints included changes from baseline in TAHW and TAHD, and IGA/GPR of changes in scalp hair growth. […]

[2] = system: men with mild to moderate androgenic alopecia (AGA); assay: Phase 2 multicenter trial, safety (treatment-related adverse events, clinical laboratory, vital signs, ECGs, physical examinations); assay type: in vivo, human
Method: as §1
Safety measures included adverse event monitoring, local tolerability assessment, clinical laboratory testing, vital signs, 12-lead electrocardiograms (ECGs), and physical examinations.
Percent changes from baseline in TAHC, TAHW, and TAHD were analyzed using the Wilcoxon rank-sum test. Frequency distributions of SSA, IGA, and GPR scores were analyzed using a Cochran-Mantel-Haenszel test stratified for age group (18-34 vs 35-49 years), and missing data were imputed to month 6 using a last-observation-carried-forward approach. Safety measures were evaluated in all subjects who received study medication; among-group and pairwise comparisons of the incidence of adverse events were performed using a chi-square or Fisher's exact test

**Q.** With `CCNC(=O)CCC/C=C\C[C@@H]1[C@@H](/C=C/[C@@H](O)CCc2ccccc2)[C@H](O)C[C@@H]1O` [bimatoprost, cyclopentane N-ethyl heptanamide-5-cis-2-(3α-hydroxy-5-phenyl-1-trans-pentenyl)-3,5-dihy-droxy, [1α,2β,3α,5α]] as the molecule, how does the “distribution of SSA (Subject Self Assessment) scores versus vehicle, in words” value ([1]; month 6) read?
**A.** Its value is “did not differ”.

**Q.** And the “changes in TAHC and TAHW versus vehicle, in words” value ([1]; two months after stopping treatment)?
**A.** The value was “no longer significantly different from vehicle”.

**Q.** And the “incidence of treatment-related adverse events, in words” value ([2]; compared with vehicle and minoxidil)?
**A.** Its value is “slightly higher with bimatoprost compared with vehicle, but lower than the rate with minoxidil”.

**Q.** What about the “changes in clinical laboratory parameters, vital signs, ECGs, or physical examinations, in words” value ([2]; human, in vivo) of the same molecule?
**A.** The value was “no clinically meaningful or dose-dependent changes”.

**Q.** And the “safety and tolerability profile, in words” value ([2]; human, in vivo)?
**A.** Its value is “consistent with that of an established topical treatment for scalp hair growth”.
